Values after ≈ are worked out from the molar mass of the structure shown. Where two headings read alike, the source gives them in different places.
Tested on: 100 A. baumannii strains (50 MDR, 50 non-MDR)
Experiment: MIC broth microdilution at IHMA Europe, panel of 100 strains
Format: cell-based
Conditions: for MIC / MIC50 / MIC90: Acinetobacter baumannii; for MIC50: read-out: MIC 50; for MIC90: read-out: MIC 90

## O=C(O)c1cn(C2CC2)c2cc(N3CCNCC3)c(F)cc2c1=O [ciprofloxacin]
A. baumannii IHMA 1769393, Lithuania 2018, Non-MDR, read-out: MIC
  MIC: 0.5 µg/mL (≈ 1.51 µM)
A. baumannii IHMA 1769782, Israel 2018, MDR, read-out: MIC
  MIC: > 16 µg/mL
A. baumannii IHMA 1769910, Israel 2018, Non-MDR, read-out: MIC
  MIC: 1 µg/mL (≈ 3.02 µM)
A. baumannii IHMA 1790317, Czech Republic 2018, Non-MDR, read-out: MIC
  MIC: ≤ 0.06 µg/mL
A. baumannii IHMA 1790916, Romania 2018, Non-MDR, read-out: MIC
  MIC: ≤ 0.06 µg/mL
A. baumannii IHMA 1791877, Israel 2018, MDR, read-out: MIC
  MIC: > 16 µg/mL
A. baumannii IHMA 1792961, Jordan 2018, MDR, read-out: MIC
  MIC: > 16 µg/mL
A. baumannii IHMA 1795669, Tunisia 2018, Non-MDR, read-out: MIC
  MIC: ≤ 0.06 µg/mL
A. baumannii IHMA 1814276, Lebanon 2018, MDR, read-out: MIC
  MIC: > 16 µg/mL
A. baumannii IHMA 1815198, Kuwait 2018, MDR, read-out: MIC
  MIC: > 16 µg/mL
A. baumannii IHMA 1815856, Israel 2018, MDR, read-out: MIC
  MIC: > 16 µg/mL
A. baumannii IHMA 1830924, United Kingdom 2018, Non-MDR, read-out: MIC
  MIC: 0.5 µg/mL (≈ 1.51 µM)
A. baumannii IHMA 1849819, Kuwait 2018, MDR, read-out: MIC
  MIC: > 16 µg/mL
A. baumannii IHMA 1849829, Kuwait 2018, Non-MDR, read-out: MIC
  MIC: ≤ 0.06 µg/mL
A. baumannii IHMA 1926285, Qatar 2018, Non-MDR, read-out: MIC
  MIC: ≤ 0.06 µg/mL
A. baumannii IHMA 1926288, Qatar 2018, MDR, read-out: MIC
  MIC: > 16 µg/mL
A. baumannii IHMA 1963732, Turkey 2019, MDR, read-out: MIC
  MIC: > 16 µg/mL
A. baumannii IHMA 1967860, Spain 2019, Non-MDR, read-out: MIC
  MIC: 1 µg/mL (≈ 3.02 µM)
A. baumannii IHMA 1971673, Latvia 2019, MDR, read-out: MIC
  MIC: > 16 µg/mL
A. baumannii IHMA 1983151, Greece 2019, MDR, read-out: MIC
  MIC: > 16 µg/mL
A. baumannii IHMA 1984665, Lithuania 2019, MDR, read-out: MIC
  MIC: > 16 µg/mL
A. baumannii IHMA 1986738, Turkey 2019, MDR, read-out: MIC
  MIC: > 16 µg/mL
A. baumannii IHMA 1987162, Croatia 2019, MDR, read-out: MIC
  MIC: > 16 µg/mL
A. baumannii IHMA 1993615, Turkey 2019, MDR, read-out: MIC
  MIC: > 16 µg/mL
A. baumannii IHMA 1994284, Italy 2019, MDR, read-out: MIC
  MIC: > 16 µg/mL
A. baumannii IHMA 2003279, Turkey 2019, MDR, read-out: MIC
  MIC: > 16 µg/mL
A. baumannii IHMA 2014931, South Africa 2019, Non-MDR, read-out: MIC
  MIC: 2 µg/mL (≈ 6.04 µM)
A. baumannii IHMA 2020360, Croatia 2019, MDR, read-out: MIC
  MIC: > 16 µg/mL
A. baumannii IHMA 2031511, Greece 2019, Non-MDR, read-out: MIC
  MIC: ≤ 0.06 µg/mL
A. baumannii IHMA 2031524, Greece 2019, MDR, read-out: MIC
  MIC: > 16 µg/mL
A. baumannii IHMA 2035089, Serbia 2019, MDR, read-out: MIC
  MIC: > 16 µg/mL
A. baumannii IHMA 2038976, Hungary 2019, MDR, read-out: MIC
  MIC: > 16 µg/mL
A. baumannii IHMA 2051503, Serbia 2019, MDR, read-out: MIC
  MIC: > 16 µg/mL
A. baumannii IHMA 2065587, France 2019, Non-MDR, read-out: MIC
  MIC: ≤ 0.06 µg/mL
A. baumannii IHMA 2129256, Qatar 2019, Non-MDR, read-out: MIC
  MIC: ≤ 0.06 µg/mL
A. baumannii IHMA 2154584, Israel 2020, MDR, read-out: MIC
  MIC: > 16 µg/mL
A. baumannii IHMA 2155340, Kenya 2020, MDR, read-out: MIC
  MIC: > 16 µg/mL
A. baumannii IHMA 2156634, Turkey 2020, MDR, read-out: MIC
  MIC: > 16 µg/mL
A. baumannii IHMA 2156709, Turkey 2020, MDR, read-out: MIC
  MIC: > 16 µg/mL
A. baumannii IHMA 2177232, Lithuania 2020, MDR, read-out: MIC
  MIC: > 16 µg/mL
A. baumannii IHMA 2177489, Lithuania 2020, MDR, read-out: MIC
  MIC: > 16 µg/mL
A. baumannii IHMA 2178574, Ukraine 2020, Non-MDR, read-out: MIC
  MIC: ≤ 0.06 µg/mL
A. baumannii IHMA 2180142, Malaysia 2020, MDR, read-out: MIC
  MIC: > 16 µg/mL
A. baumannii IHMA 2181370, Morocco 2020, MDR, read-out: MIC
  MIC: > 16 µg/mL
A. baumannii IHMA 2183729, Argentina 2020, MDR, read-out: MIC
  MIC: > 16 µg/mL
A. baumannii IHMA 2193375, Venezuela 2020, MDR, read-out: MIC
  MIC: > 16 µg/mL
A. baumannii IHMA 2193485, Venezuela 2020, Non-MDR, read-out: MIC
  MIC: ≤ 0.06 µg/mL
A. baumannii IHMA 2193607, Venezuela 2020, MDR, read-out: MIC
  MIC: > 16 µg/mL
A. baumannii IHMA 2195460, Italy 2020, MDR, read-out: MIC
  MIC: > 16 µg/mL
A. baumannii IHMA 2196914, South Africa 2020, MDR, read-out: MIC
  MIC: > 16 µg/mL
A. baumannii IHMA 2196959, South Africa 2020, MDR, read-out: MIC
  MIC: > 16 µg/mL
A. baumannii IHMA 2203763, Spain 2020, MDR, read-out: MIC
  MIC: > 16 µg/mL
A. baumannii IHMA 2205144, Korea, South 2020, MDR, read-out: MIC
  MIC: > 16 µg/mL
A. baumannii IHMA 2206459, Taiwan 2020, MDR, read-out: MIC
  MIC: > 16 µg/mL
A. baumannii IHMA 2206507, Taiwan 2020, Non-MDR, read-out: MIC
  MIC: ≤ 0.06 µg/mL
A. baumannii IHMA 2216586, Taiwan 2020, MDR, read-out: MIC
  MIC: > 16 µg/mL
A. baumannii IHMA 2224017, Panama 2020, MDR, read-out: MIC
  MIC: > 16 µg/mL
A. baumannii IHMA 2231797, Greece 2020, MDR, read-out: MIC
  MIC: > 16 µg/mL
A. baumannii IHMA 2233099, Guatemala 2020, MDR, read-out: MIC
  MIC: > 16 µg/mL
A. baumannii IHMA 2233430, Kazakhstan 2020, MDR, read-out: MIC
  MIC: > 16 µg/mL
A. baumannii IHMA 2238964, Thailand 2020, MDR, read-out: MIC
  MIC: > 16 µg/mL
A. baumannii IHMA 2261047, Belgium 2020, MDR, read-out: MIC
  MIC: > 16 µg/mL
A. baumannii IHMA 2274234, South Africa 2020, MDR, read-out: MIC
  MIC: > 16 µg/mL
A. baumannii IHMA 2274364, South Africa 2020, MDR, read-out: MIC
  MIC: > 16 µg/mL
A. baumannii IHMA 2275751, Jordan 2020, MDR, read-out: MIC
  MIC: > 16 µg/mL
A. baumannii IHMA 2316205, United States 2020, MDR, read-out: MIC
  MIC: > 16 µg/mL
MDR n = 50, read-out: MAX (maximum MIC; all strains inhibited)
  MIC: > 16 µg/mL
MDR n = 50
  MIC50: > 16 µg/mL
  MIC90: > 16 µg/mL
  Percentage I: 0%
  Percentage R: 100%
  Percentage S: 0%
MDR n = 50, read-out: MIN (minimum MIC)
  MIC: > 16 µg/mL
All isolates n = 100, read-out: MAX (maximum MIC; all strains inhibited)
  MIC: > 16 µg/mL
All isolates n = 100
  MIC50: 2 µg/mL (≈ 6.04 µM)
  MIC90: > 16 µg/mL
All isolates n = 100, read-out: MIN (minimum MIC)
  MIC: ≤ 0.06 µg/mL
non-MDR n = 50, read-out: MAX (maximum MIC)
  MIC: 2 µg/mL (≈ 6.04 µM)
non-MDR n = 50, read-out: MIN (minimum MIC)
  MIC: ≤ 0.06 µg/mL
non-MDR n = 50
  Percentage I: 2%
  Percentage R: 0%
  Percentage S: 98%

— PMC10041525, “New Dual Inhibitors of Bacterial Topoisomerases with Broad-Spectrum Antibacterial Activity and In Vivo Efficacy against Vancomycin-Intermediate Staphylococcus aureus” (Journal of Medicinal Chemistry, 2023)
